Where two headings read alike, the source gives them in different places.
Test system: MV4:11 human cancer cell lines
Test: Cellular viability / anti-proliferative activity, CellTiter-Glo, 5 day protocol
Format: cell-based
Conditions: read-out: GI50 on cellular proliferation of MV4:11 human cancer cell lines
Outline: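 Cells seeded at 200 per well (7200 cells/mL) with compound in 2-fold serial dilutions from 30 μM top (22 points), 0.3% DMSO final. Viability read by CellTiter-Glo luminescence after 5 days; GI50 from sigmoidal dose-response fit, mean of at least two replicates.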

[1] = Homo sapiens, MV4-11, 120 h, MV4:11 cells, 5 day incubation, CellTiter-Glo, mean of minimum two replicates

| GI50 [1] | SMILES | further results |
| --- | --- | --- |
| 227 nM | COc1ccnc([C@H](C)N2CCc3c(cc(Cn4ccnc4C)cc3-c3c[nH]nc3C)C2=O)c1 [Example 238, (S)-2-(1-(4-methoxypyridin-2-yl)ethyl)-7-((2-methyl-1H-imidazol-1-yl)methyl)-5-(3-methyl-1H-pyrazol-4-yl)-3,4-dihydroisoquinolin-1(2H)-one] | – |
| < 50 nM | CCn1cc(-c2cc(Cn3ccnc3C)cc3c2CCN([C@@H](C)c2cncc(OC)c2)C3=O)c(C(F)(F)F)n1 [Example 243, (S)-5-(1-Ethyl-3-(trifluoromethyl)-1H-pyrazol-4-yl)-2-(1-(5-methoxypyridin-3-yl)ethyl)-7-((2-methyl-1H-imidazol-1-yl)methyl)-3,4-dihydroisoquinolin-1(2H)-one] | – |
| 119 nM | CCn1cc(-c2cc(Cn3cnc(C)c3)cc3c2CCN([C@H](c2cc(OC)ccn2)C2CC2)C3=O)c(C(F)(F)F)n1 [Example 244, (S)-2-(cyclopropyl(4-methoxypyridin-2-yl)methyl)-5-(1-ethyl-3-(trifluoromethyl)-1H-pyrazol-4-yl)-7-((4-methyl-1H-imidazol-1-yl)methyl)-3,4-dihydroisoquinolin-1(2H)-one] | – |
| < 50 nM | CCn1cc(-c2cc(Cn3ccnc3)cc3c2CCN([C@H](c2cc(C)ccn2)C2CC2)C3=O)c(C(F)(F)F)n1 [Example 245, (S)-7-((1H-imidazol-1-yl)methyl)-2-(cyclopropyl(4-methylpyridin-2-yl)methyl)-5-(1-ethyl-3-(trifluoromethyl)-1H-pyrazol-4-yl)-3,4-dihydroisoquinolin-1(2H)-one] | – |
| 1870 nM | Cc1nccn1Cc1cc2c(c(-c3cn(C)nc3C(F)(F)F)c1)CCN(c1cnccc1-c1ccccc1)C2=O [Example 246, 7-((2-Methyl-1H-imidazol-1-yl)methyl)-5-(1-methyl-3-(trifluoromethyl)-1H-pyrazol-4-yl)-2-(4-phenylpyridin-3-yl)-3,4-dihydroisoquinolin-1(2H)-one] | – |
| 1340 nM | CCn1cc(-c2cc(Cc3nccn3C)cc3c2CCN([C@@H](C)c2cc(OC)ccn2)C3=O)c(C(F)(F)F)n1 [Example 254, (S)-5-(1-Ethyl-3-(trifluoromethyl)-1H-pyrazol-4-yl)-2-(1-(4-methoxypyridin-2-yl)ethyl)-7-((1-methyl-1H-imidazol-2-yl)methyl)-3,4-dihydroisoquinolin-1(2H)-one] | – |
| 3860 nM | Cc1nccn1Cc1cc2c(c(-c3cn(C)nc3C(F)(F)F)c1)CCN(c1ccccc1OC(C)C)C2=O [Example 256, 2-(2-Isopropoxyphenyl)-7-((2-methyl-1H-imidazol-1-yl)methyl)-5-(1-methyl-3-(trifluoromethyl)-1H-pyrazol-4-yl)-3,4-dihydroisoquinolin-1(2H)-one] | – |

The remaining lines, values behind:

| SMILES | GI50 [1] | further results |
| --- | --- | --- |
| Cc1nccn1Cc1cc2c(c(-c3cn(C)nc3C(F)(F)F)c1)CCN(Cc1cc(Br)cc3[nH]ccc13)C2=O [Example 236, 2-((6-Bromo-1H-indol-4-yl)methyl)-7-((2-methyl-1H-imidazol-1-yl)methyl)-5-(1-methyl-3-(trifluoromethyl)-1H-pyrazol-4-yl)-3,4-dihydroisoquinolin-1(2H)-one] | 121 nM | – |
| COc1ccnc([C@H](C)N2CCc3c(cc(Cn4ccnc4C)cc3-c3c[nH]nc3C(F)(F)F)C2=O)c1 [Example 237, (S)-2-(1-(4-methoxypyridin-2-yl)ethyl)-7-((2-methyl-1H-imidazol-1-yl)methyl)-5-(3-(trifluoromethyl)-1H-pyrazol-4-yl)-3,4-dihydroisoquinolin-1(2H)-one] | < 50 nM | – |
| Cc1nccn1Cc1cc2c(c(-c3cn(C)nc3C(F)(F)F)c1)CCN([C@@H](C)c1cc(C3CC3)nn1C)C2=O [Example 239, (S)-2-(1-(3-Cyclopropyl-1-methyl-1H-pyrazol-5-yl)ethyl)-7-((2-methyl-1H-imidazol-1-yl)methyl)-5-(1-methyl-3-(trifluoromethyl)-1H-pyrazol-4-yl)-3,4-dihydroisoquinolin-1(2H)-one] | 573 nM | – |
| Cc1cc(CN2CCc3c(cc(Cn4ccnc4C)cc3-c3cn(C)nc3C(F)(F)F)C2=O)cnc1C [Example 241, 2-((5,6-Dimethylpyridin-3-yl)methyl)-7-((2-methyl-1H-imidazol-1-yl)methyl)-5-(1-methyl-3-(trifluoromethyl)-1H-pyrazol-4-yl)-3,4-dihydroisoquinolin-1(2H)-one] | < 50 nM | – |
| Cc1cc(CN2CCc3c(cc(Cn4ccnc4C)cc3-c3cn(C)nc3C(F)(F)F)C2=O)cnc1Cl [Example 242, 2-((6-Chloro-5-methylpyridin-3-yl)methyl)-7-((2-methyl-1H-imidazol-1-yl)methyl)-5-(1-methyl-3-(trifluoromethyl)-1H-pyrazol-4-yl)-3,4-dihydroisoquinolin-1(2H)-one] | – | GI50 (MV4:11 cells, 5 day incubation, CellTiter-Glo, mean of minimum two replicates): 50 nM |
| COc1ccnc([C@H](C)N2CCc3c(cc(Cn4ccnc4C)cc3-c3ccncc3C(F)(F)F)C2=O)c1 [Example 248, (S)-2-(1-(4-Methoxypyridin-2-yl)ethyl)-7-((2-methyl-1H-imidazol-1-yl)methyl)-5-(3-(trifluoromethyl)pyridin-4-yl)-3,4-dihydroisoquinolin-1(2H)-one] | 55 nM | – |
| COc1ccnc([C@H](C)N2CCc3c(cc(Cn4ccnc4C)cc3-c3cncnc3C(F)(F)F)C2=O)c1 [Example 249, (S)-2-(1-(4-Methoxypyridin-2-yl)ethyl)-7-((2-methyl-1H-imidazol-1-yl)methyl)-5-(4-(trifluoromethyl)pyrimidin-5-yl)-3,4-dihydroisoquinolin-1(2H)-one] | 1970 nM | – |
| CCn1cc(-c2cc(Cc3cnc[nH]3)cc3c2CCN([C@@H](C)c2cc(OC)ccn2)C3=O)c(C(F)(F)F)n1 [Example 250, (S)-7-((1H-Imidazol-5-yl)methyl)-5-(1-ethyl-3-(trifluoromethyl)-1H-pyrazol-4-yl)-2-(1-(4-methoxypyridin-2-yl)ethyl)-3,4-dihydroisoquinolin-1(2H)-one] | – | GI50 (Homo sapiens, MV4-11, 120 h): < 50 nM |
| COc1ccnc([C@H](C2CC2)N2CCc3c(cc(Cn4ccnc4C)cc3-c3cn(C)nc3C(F)(F)F)C2=O)c1 [Example 251, (S)-2-(Cyclopropyl(4-methoxypyridin-2-yl)methyl)-7-((2-methyl-1H-imidazol-1-yl)methyl)-5-(1-methyl-3-(trifluoromethyl)-1H-pyrazol-4-yl)-3,4-dihydroisoquinolin-1(2H)-one] | – | GI50 (Homo sapiens, MV4-11, 120 h): < 50 nM |
| COc1ccnc([C@H](C2CC2)N2CCc3c(cc(Cn4ccnc4)cc3-c3cn(C)nc3C(F)(F)F)C2=O)c1 [Example 252, (S)-7-((1H-Imidazol-1-yl)methyl)-2-(cyclopropyl(4-methoxypyridin-2-yl)methyl)-5-(1-methyl-3-(trifluoromethyl)-1H-pyrazol-4-yl)-3,4-dihydroisoquinolin-1(2H)-one] | < 50 nM | – |
| Cc1nccn1Cc1cc2c(c(-c3cn(C)nc3C(F)(F)F)c1)CCN(c1ccc(F)cc1OCC1CC1)C2=O [Example 253, 2-(2-(Cyclopropylmethoxy)-4-fluorophenyl)-7-((2-methyl-1H-imidazol-1-yl)methyl)-5-(1-methyl-3-(trifluoromethyl)-1H-pyrazol-4-yl)-3,4-dihydroisoquinolin-1(2H)-one] | 2090 nM | – |
| Cc1nccn1Cc1cc2c(c(-c3cn(C)nc3C(F)(F)F)c1)CCN(c1ccccc1OC(F)(F)F)C2=O [Example 255, 7-((2-Methyl-1H-imidazol-1-yl)methyl)-5-(1-methyl-3-(trifluoromethyl)-1H-pyrazol-4-yl)-2-(2-(trifluoromethoxy)phenyl)-3,4-dihydroisoquinolin-1(2H)-one] | 2790 nM | – |
